In one experiment the target is T1, ArrMsm (Mycolicibacterium smegmatis, UniProt A0QRS5).
T1 construct: gene MSMEG_1221; purified wild-type enzyme, N-terminal His6 tag cleaved with C3 protease
As to the kind of experiment: ITC (also nanoDSF; rpTLC ADP-ribosylation). The class given is binding.

The target in the next experiment is T2, ArrMab (Mycobacteroides abscessus, UniProt B1MH05).
T2 construct: gene MAB_0591; purified wild-type enzyme, N-terminal His6 tag cleaved with C3 protease
In words: ITC (also nanoDSF; rpTLC ADP-ribosylation). The class given is binding. (DSF heats the sample and reads unfolding from a dye or from intrinsic fluorescence.)

T2 sequence (B1MH05 entry or part of it): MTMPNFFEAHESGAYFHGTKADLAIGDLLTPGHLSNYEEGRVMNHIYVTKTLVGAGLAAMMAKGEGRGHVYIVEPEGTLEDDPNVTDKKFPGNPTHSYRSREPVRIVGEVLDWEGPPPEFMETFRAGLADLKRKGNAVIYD
T1 sequence (A0QRS5 entry or part of it): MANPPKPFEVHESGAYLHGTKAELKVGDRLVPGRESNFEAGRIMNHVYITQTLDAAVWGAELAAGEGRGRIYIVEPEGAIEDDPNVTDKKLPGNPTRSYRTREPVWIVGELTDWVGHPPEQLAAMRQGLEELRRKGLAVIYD

Consider `CO[C@H]1/C=C/O[C@@]2(C)Oc3c(C)c(O)c4c(O)c(c(/C=N/N5CCN(C)CC5)c(O)c4c3C2=O)NC(=O)/C(C)=C\C=C\[C@H](C)[C@H](O)[C@@H](C)[C@@H](O)[C@@H](C)[C@H](OC(C)=O)[C@@H]1C` [RMP, Rifampicin], for which the dissociation constant (Kd) (in general, the free concentration of one partner at which half of the binding sites on the other are occupied at equilibrium, for simple one-to-one binding) on ArrMsm stood at 290 ± 20 nM; at ArrMab, 4800 ± 3 nM.
